Measurements taken from the supplement of paper PMC10307832.

What was measured:
Test in all cases: relative viability (nuclei count vs DMSO), 5 days (fraction); higher = more cells survive
[1] = compound: Cc1ccc2nc(NCCN)c3ncc(C)n3c2c1 + CCNC(=O)c1noc(-c2cc(C(C)C)c(O)cc2O)c1-c1ccc(CN2CCOCC2)cc1 [Luminespib] (partner 0.01 µM)
Summary of the method: (§1)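 Dosing by pin tool came one day after lung cancer cell lines were seeded in 1536-well plates, using either one drug or a fixed anchor-drug dose plus five library-drug doses (not always all listed) in √10 steps. After 5 days, nuclei were counted on 4× images. Relative viability is treated-well nuclei count divided by vehicle-well nuclei count, and values are medians of duplicate plates.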

[2] = compound: Cc1ccc2nc(NCCN)c3ncc(C)n3c2c1 + Nc1nc2[nH]cc(CCc3ccc(C(=O)N[C@@H](CCC(=O)O)C(=O)O)cc3)c2c(=O)[nH]1 [Pemetrexed] (partner 0.2 µM)
Summary of the method: as §1

[3] = compound: Cc1ccc2nc(NCCN)c3ncc(C)n3c2c1 + C[C@@H](Oc1cc(-c2cnn(C3CCNCC3)c2)cnc1N)c1c(Cl)ccc(F)c1Cl [Crizotinib] (partner 1 µM)
Summary of the method: as §1

[4] = compound: O=C(/C=C/c1ccccc1)NC(NC(=S)Nc1cccc2cccnc12)C(Cl)(Cl)Cl [Salubrinal] + COc1cccc2cc(-c3nc([C@H]4CC[C@H](C(=O)O)CC4)n4ncnc(N)c34)[nH]c12 [OSI-027] (partner 0.5 µM)
Summary of the method: as §1

Row | Cell Line | relative viability ([1]; first compound 0.04 µM) | relative viability ([1]; first compound 0.1265 µM) | relative viability ([1]; first compound 0.4 µM) | relative viability ([1]; first compound 1.265 µM) | relative viability ([1]; first compound 4 µM) | relative viability ([2]; first compound 0.04 µM) | relative viability ([2]; first compound 0.1265 µM) | relative viability ([2]; first compound 0.4 µM) | relative viability ([2]; first compound 1.265 µM) | relative viability ([2]; first compound 4 µM) | relative viability ([3]; first compound 0.04 µM) | relative viability ([3]; first compound 0.1265 µM) | relative viability ([3]; first compound 0.4 µM) | relative viability ([3]; first compound 1.265 µM) | relative viability ([3]; first compound 4 µM) | relative viability ([4]; first compound 0.08 µM) | relative viability ([4]; first compound 0.253 µM) | relative viability ([4]; first compound 0.8 µM) | relative viability ([4]; first compound 2.53 µM) | relative viability ([4]; first compound 8 µM)
1 | ChaGo-K-1 | 0.7 | 0.565 | 0.608 | 0.517 | 0.643 | 0.248 | 0.267 | 0.256 | 0.252 | 0.253 | 1.17 | 1.03 | 1.15 | 0.989 | 0.922 | 0.731 | 0.479 | 0.581 | 0.612 | 0.435
2 | LK-2 | 0.198 | 0.194 | 0.182 | 0.185 | 0.197 | 0.252 | 0.297 |  |  | 0.191 | 0.228 | 0.258 | 0.214 | 0.222 | 0.238 | 0.185 | 0.194 | 0.258 | 0.212 | 0.214
3 | NCI-H322M | 0.908 | 0.845 | 0.961 | 0.858 | 0.734 | 0.654 | 0.621 | 0.62 | 0.634 | 0.647 | 1.02 | 0.882 | 0.832 | 0.944 | 0.876 | 0.471 | 0.536 | 0.565 | 0.57 | 0.471
4 | NCI-H520 | 0.204 | 0.216 | 0.231 | 0.191 | 0.235 | 0.655 | 0.62 | 0.651 | 0.687 | 0.574 | 0.725 | 0.699 | 0.761 | 0.791 | 0.639 | 0.334 | 0.22 | 0.265 | 0.307 | 0.337
5 | NCI-H1666 | 0.963 | 0.994 | 1.07 | 0.915 | 1.01 | 0.965 | 0.817 | 0.84 | 0.736 | 0.795 | 0.998 | 1.01 | 0.874 | 0.852 | 0.907 | 0.953 | 0.763 | 0.894 | 0.806 | 0.848
6 | NCI-H1993 | 1.01 | 0.944 | 0.902 | 0.887 | 0.859 | 0.595 | 0.623 | 0.528 | 0.57 | 0.613 | 0.822 | 0.896 | 0.811 | 0.812 | 0.826 | 0.58 | 0.564 | 0.509 | 0.495 | 0.584
7 | NCI-H1975 | 0.224 | 0.243 | 0.326 | 0.116 | 0.153 | 0.309 | 0.29 | 0.3 | 0.313 | 0.324 | 1.05 | 0.965 | 0.957 | 0.771 | 0.757 | 0.959 | 0.567 | 0.891 | 0.703 | 0.405
8 | HCC-44 | 1.07 | 1.04 | 1.06 | 1.05 | 0.591 | 0.679 | 0.704 | 0.643 | 0.594 | 0.709 | 0.851 | 0.827 | 0.768 | 0.828 | 0.835 | 0.371 | 0.411 | 0.759 | 0.501 | 0.484
